Assay results taken from US20250135016A1, “MOLECULAR LOGIC GATES FOR CONTROLLED MATERIAL DEGRADATION” (University of Washington, priority 2016, published 2025).
Where “and” joins values, the source holds several entries; their conditions need not be identical. Equal values may be shown once. Read-outs that look alike come from different tables or passages of the source.

Assays:
[1] = Method: Azide functionalized glass slides were synthesized as reported in previous works. […] PEG3500-diazide (37.5 μL, 40 mM) was then added, and the resulting solution was rapidly mixed, centrifuged, and then pipetted (25 μL) onto the azide functionalized glass slide. The gels were allowed to gel to completion for 1 hr, then covered with a RainX treated glass slide, and PBS (1×) was added to swell and rinse the gel overnight at room temperature, protected from light. The following morning, two of the gels (gel 3 and 4) was exposed to 365 nm light at 20 mW/cm^2 for 10 minutes with a hatched square (100 μm) chrome photomask. Following the light treatment, gel 3 was returned to PBS (1×) and protected from light. Gels 2 and 4 were placed in a solution of Dithiothreitol (DTT, 1 mM) for 4 hours. Gels 2 and 4 were then transferred to PBS (1×) and protected from light for 30 mins. Gel 1 remained in PBS and protected from light the entire time. The resulting fluorescence of these gels were imaged using a confocal scanning microscope at 488 nm.
[2] = In situ oscillatory rheology of hydrogel formation with pretreated E∧P crosslinker; assay type: physicochemical
Method: Reaction products were characterized using matrix-assisted laser desorption/ionization time-of-flight mass spectrometry (MALDI-TOF). […] To further investigate, the enzyme AND photo linker (E∧P) was pretreated with different combinations of enzyme and light, added to a stoichiometrically defined amount of PEG-tetraBCN, and characterized by in situ oscillatory rheology to monitor evolution of material properties.
Oscillatory rheology was performed on an Anton Paar MCR301 rheometer equipped with a cone and plate geometry (25 mm diameter, 1° cone) at 25° C. and 25 Hz with a 1% strain. A solution of PEG-tetraBCN (3 mM, Method S22) and the E∧P crosslinker (6 mM, Method S12) in MMP buffer was reacted in situ, while G′ and G″ were measured as a function of time over the course of two hours. Peptide crosslinkers were pretreated with MMP and/or light as described in Method S24 in experimental triplicate. Hydrogels with similar stiffnesses formed when the E∧P crosslinker was untreated (G′=1660±170), exposed to just light (G′=1580±130), or exposed to just enzyme (G′=1540±110).

[3] = all eight input combinations of reductant, MMP enzyme and light; endpoint supernatant fluorescence
[4] = Multi-logic hydrogel treatment and confocal microscopy; assay type: physicochemical; settings: three-region gel
Method: Hydrogels were formed sandwiched between an azide-functional glass slide and a Rain-X®-treated glass slide separated by two 0.005″ thick silicone spacers (McMaster-Carr). A precursor solution containing PEG-tetraBCN-FAM (Method S22, 2 mM) and the P crosslinker (Method S7, 4 mM) was injected between the silicone spacers (0.005 inches) and reacted for one hour. Subsequently, a precursor solution of PEG-tetraBCN-Cyanine5 (Method S22, 2 mM) and the R∨P crosslinker (Method S10, 4 mM) was injected between the FAM functionalized region and a silicone spacer and reacted for one hour. This was repeated on the other side of the FAM functionalized region with PEG-tetraBCN-AF568 (Method S22, 2 mM) and R∧P crosslinker (Method S13, 4 mM). Hydrogels were equilibrated and stored in PBS. […]
Hydrogels were imaged using fluorescent confocal microscopy. Three channels—one for each fluorophore—were simultaneously monitored. For visualization, fluorescence corresponding to AF568 (excitation 578 nm, emission 594-627 nm), FAM (excitation 515 nm, emission 520-569 nm), and Cyanine5 (excitation 646 nm, emission 663-675 nm) were false colored as red, green, and blue, respectively.

[5] = tested on: hS5 bone marrow-derived stromal cells; assay: Hydrogel-encapsulated cell release studies; assay type: cell-based, human
Method: Four human bone marrow-derived stromal cell lines [hS5], including one non-fluorescent control and three each stably transfected to express a single fluorescent protein [mCherry, green fluorescent protein (GFP), or blue fluorescent protein (BFP)], were cultured at 37° C. in Roswell Park Memorial Institute medium 1640 (RPMI-1640, Corning) supplemented with 10% FBS and 1% PS.
Hydrogels were formed sandwiched between an azide-functional glass slide and a Rain-X®-treated glass slide separated by two 0.005″ thick silicone spacers (McMaster-Carr). A precursor solution containing PEG-tetraBCN (Method S22, 2 mM), the P crosslinker (Method S7, 4 mM), and hS5-GFP^+ (40×10^6 cells mL^−1) was injected between the silicone spacers and reacted for one hour. Subsequently, a precursor solution of PEG-tetraBCN (2 mM), the R∨P crosslinker (Method S10, 4 mM), and hS5-BFP^+ (40×10^6 cells mL^−1) was injected between the hS5-GFP^+ encapsulated region and a silicone spacer. […]
Following each degradative step, cells that remained encapsulated in the intact gel were imaged using fluorescent confocal microscopy. Three channels—one for each fluorescent protein—were simultaneously monitored. For visualization, fluorescence corresponding to mCherry (excitation 587 nm, emission 626-703 nm), GFP (excitation 489 nm, emission 499-570 nm), and BFP (excitation 405 nm, emission 413-494 nm) were false colored as red, green, and blue, respectively. […]
Gels were degraded and the viability of the released cells was assessed. […]
Cells released from the gels and stained with the Live/Dead® assay were imaged on a Nikon Eclipse TE2000-U microscope using filter cubes corresponding to both live (excitation 480/40 nm filter, emission 535/50 nm filter) and dead (excitation 560/20 nm filter, emission 630/60 nm filter) staining. Viability was determined for each treatment by standard image analysis. […]

Substance: FAM-GRCG-PL-GCGRK(CO(CH2)3N3)—NH2 [FAM-Photolabile-AND-Reducible Pendant]
- Gel fluorescence (FAM release) ([1]; Gel 1, control, PBS only): no visible loss in fluorescence
- Gel fluorescence (FAM release) ([1]; Gel 2, DTT only (1 mM, 4 hours)): no visible loss in fluorescence
- Gel fluorescence (FAM release) ([1]; Gel 3, photomasked light only (365 nm, 20 mW/cm^2, 10 minutes)): no visible loss in fluorescence
- Gel fluorescence (FAM release) ([1]; Gel 4, photomasked light and DTT): release in only the exposed areas

Substance: HCC(CH2)2CO-RGK(CO(CH2)3N3)GPQGIWGQGK(oNB-N3)RK(CO(CH2)3N3)—NH2 [E∧P]
- Final storage modulus G′ ([2]; E∧P linker pretreated with both enzyme and light, did not form a gel): 200±30 Pa
- Final storage modulus G′ ([2]; E∧P linker pretreated with enzyme (MMP) only): 1580±130 Pa and 1540±110 Pa
- Final storage modulus G′ ([2]; E∧P linker pretreated with light only): 1540±110 Pa and 1580±130 Pa
- Final storage modulus G′ ([2]; E∧P linker untreated, reacted with PEG-tetraBCN): 1660±170 Pa
- Final loss modulus G″ ([2]; all samples): ~50 Pa

Substance: N3-oNB-RGGRK(N3)—NH2 [P]
- Hydrogel degradation response [3]: degrading only when the programmed cue was present
- Response to subsequent reducing treatment ([4]; BME 0.25 mM, 45 minutes, after masked light): fully intact
- Response to masked UV light ([4]; λ=365 nm, 10 minute exposure, slitted photomask): degradation
- Gel degradation for viability studies ([5]; R gels BME 0.25 mM 45 minutes, P gels UV 10 minutes, E gels MMP-8 0.20 nM 60 minutes): complete hydrogel degradation
- Response to subsequent reducing treatment ([5]; cell-laden tri-color gel, BME 0.25 mM, 37° C., 45 minutes): fully intact
- Response to masked UV light ([5]; cell-laden tri-color gel, λ=365 nm, 10 minute exposure, photomask): degradation
